Source: US20240358842A1, “PROTEIN STABILIZING COMPOUNDS CONTAINING USP7 LIGANDS” (Stablix, Inc., priority 2021, published 2024)
Like-named read-outs stand apart in the source and are kept apart here.

Legend:
USP7 CD + UBL 1-5 = biological target: T1, USP7 CD + UBL 1-5 (Homo sapiens, UniProt Q93009); assay: Surface plasmon resonance assay (SPR); format: binding
T1 construct: USP7 CD +
Procedure: The surface plasmon resonance experiments were performed using a Cytiva (formerly GE Healthcare) Biacore 8K equipped with a Series S Sensor Chip SA. The ligands were immobilized via a biotin-modified biotin acceptor peptide. USP7 Ligands were diluted in running buffer (HBS-P+2% DMSO; 10 mM HEPES, pH 7.4, 150 mM NaCl, 1 mM DTT, 0.05% P20, 2% DMSO) to 100 μg/mL and injected at […] until a density between 500-10,000 RU was reached on flow-cell two of each channel, and flow cell one was left blank to serve as a reference surface. Both surfaces were washed until a stable baseline was achieved then 30 startup cycles to condition the surface. To collect kinetic and steady-state binding data, the small molecule analytes were prepared in three-fold dilution series in HBS-P+2% DMSO running buffer. Analytes were injected over both flow cells at a flow rate of […] at 25° C. The complex was allowed to associate for 60 seconds and dissociate for 300 seconds. Data were collected at 10 Hz. The data were fit to a simple 1:1 interaction model global data analysis within Cytiva Biacore Insight Evaluation Software.

USP7 = USP7 (Homo sapiens, UniProt Q93009); assay: Ub-Rho cleavage assay; format: biochemical; settings: Ub-Rho substrate, recombinant USP7; read-out: Ub (Rho) USP7.1 (IC50)
Sequence of USP7 (Q93009 whole entry): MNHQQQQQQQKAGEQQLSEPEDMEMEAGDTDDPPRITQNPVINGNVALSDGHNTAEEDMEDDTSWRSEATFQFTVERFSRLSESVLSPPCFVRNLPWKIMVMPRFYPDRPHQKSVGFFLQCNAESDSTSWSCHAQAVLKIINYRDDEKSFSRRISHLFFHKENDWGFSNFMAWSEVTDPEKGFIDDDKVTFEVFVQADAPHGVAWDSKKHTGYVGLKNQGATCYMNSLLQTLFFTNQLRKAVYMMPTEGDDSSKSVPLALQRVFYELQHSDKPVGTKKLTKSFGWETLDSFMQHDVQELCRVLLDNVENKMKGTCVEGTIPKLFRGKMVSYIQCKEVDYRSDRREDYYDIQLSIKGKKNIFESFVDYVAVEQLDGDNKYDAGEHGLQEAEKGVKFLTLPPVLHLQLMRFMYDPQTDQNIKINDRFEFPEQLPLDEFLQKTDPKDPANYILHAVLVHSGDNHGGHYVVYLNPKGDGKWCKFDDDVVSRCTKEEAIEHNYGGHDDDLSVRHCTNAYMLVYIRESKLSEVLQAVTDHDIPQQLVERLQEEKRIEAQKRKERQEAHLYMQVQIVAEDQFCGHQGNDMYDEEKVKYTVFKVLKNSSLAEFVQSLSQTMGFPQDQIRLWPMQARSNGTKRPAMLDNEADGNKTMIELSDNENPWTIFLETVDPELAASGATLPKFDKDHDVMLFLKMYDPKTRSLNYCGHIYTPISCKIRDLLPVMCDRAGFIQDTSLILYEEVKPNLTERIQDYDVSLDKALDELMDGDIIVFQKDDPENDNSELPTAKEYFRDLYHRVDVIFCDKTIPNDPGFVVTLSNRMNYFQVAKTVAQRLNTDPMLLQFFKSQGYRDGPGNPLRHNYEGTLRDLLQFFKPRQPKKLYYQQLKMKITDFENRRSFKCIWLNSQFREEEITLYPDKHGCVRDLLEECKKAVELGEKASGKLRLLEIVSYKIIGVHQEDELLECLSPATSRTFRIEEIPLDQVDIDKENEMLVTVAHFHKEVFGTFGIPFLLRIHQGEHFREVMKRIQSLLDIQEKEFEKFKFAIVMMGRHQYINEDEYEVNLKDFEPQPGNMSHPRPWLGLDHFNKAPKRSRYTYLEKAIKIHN
Procedure: All fluorescence measurements were performed on a Molecular Devices FlexStation3 with excitation at 480 nm and emission 540 nm, PMT Gain: Medium, Flash Number: 10. […] Assay buffer for all measurements was 50 mM HEPES, 100 mM NaCl, 0.5 mM EDTA, 1 mM TCEP, 0.1 mg/ml BSA, 0.01% Tween-20, pH 7.8. […] Serial dilutions were made with a Mosquito HTS (SPT Labtech) nanoliter liquid handler. 200 nL of each compound in duplicate or DMSO control were transferred to the assay plate. The first two columns served as positive controls. 9.8 μl per well of USP7 working solution was added to the assay plate. Compound+Protein was incubated for 25 min at 25° C. 10 uL of Ub-Rho substrate was added per well and incubated for an additional 15 min at 25° C. Fluorescence was then measured. Percent response relative to DMSO controls was calculated in GraphPad or Scinamic, and the data was fitted to a non-linear regression to determine IC50 values.

[1] = steady-state KD, read-out: SPR USP7 CD + UBL 1-5 (KD_ss)

T1 sequence (Q93009 208-1102 limits assumed): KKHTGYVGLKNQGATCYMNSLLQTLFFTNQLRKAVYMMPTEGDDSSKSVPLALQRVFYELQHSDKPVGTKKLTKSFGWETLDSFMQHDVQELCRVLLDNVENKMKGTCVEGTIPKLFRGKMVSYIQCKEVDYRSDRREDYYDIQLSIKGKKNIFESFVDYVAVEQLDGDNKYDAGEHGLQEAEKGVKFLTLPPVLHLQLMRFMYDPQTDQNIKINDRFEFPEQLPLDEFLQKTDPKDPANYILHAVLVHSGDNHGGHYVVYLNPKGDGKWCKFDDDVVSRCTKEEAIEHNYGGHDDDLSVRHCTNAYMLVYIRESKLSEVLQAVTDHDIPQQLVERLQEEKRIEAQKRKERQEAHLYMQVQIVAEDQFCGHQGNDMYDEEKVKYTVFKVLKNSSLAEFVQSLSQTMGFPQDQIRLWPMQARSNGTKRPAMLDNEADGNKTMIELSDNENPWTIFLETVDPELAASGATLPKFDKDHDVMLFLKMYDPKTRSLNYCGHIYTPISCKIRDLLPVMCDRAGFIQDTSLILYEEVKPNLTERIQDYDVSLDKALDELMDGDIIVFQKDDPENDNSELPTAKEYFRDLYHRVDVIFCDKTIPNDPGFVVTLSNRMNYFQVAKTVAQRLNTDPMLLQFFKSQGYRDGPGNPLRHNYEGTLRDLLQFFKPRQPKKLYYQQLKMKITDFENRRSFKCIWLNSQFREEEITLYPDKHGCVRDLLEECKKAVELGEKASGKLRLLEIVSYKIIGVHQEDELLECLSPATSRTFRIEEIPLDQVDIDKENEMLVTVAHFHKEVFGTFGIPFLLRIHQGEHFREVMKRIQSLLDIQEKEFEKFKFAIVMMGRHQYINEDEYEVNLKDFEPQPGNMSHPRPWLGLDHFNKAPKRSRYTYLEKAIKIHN

SMILES	Kd (USP7 CD + UBL 1-5; [1])	IC50 (USP7)	Kd (USP7 CD + UBL 1-5; kinetic KD, read-out: SPR USP7 CD + UBL 1-5 (KD_kinetic))
CCc1c(-c2ccc(C(=O)NCCCNC(=O)CCCCCNC(=O)OC(C)(C)C)nc2)cnc(N)c1-c1ccc(O)cc1 [U50]	1 to 100 µM	1 to 100 µM	
CCc1c(-c2ccc(C(=O)NCCCNC(=O)CCCCCCNC(=O)OC(C)(C)C)nc2)cnc(N)c1-c1ccc(O)cc1 [U51]	1 to 100 µM	> 100 µM	
CCc1c(-c2ccc(C(=O)NCCCNC(=O)CCCCCCCNC(=O)OC(C)(C)C)nc2)cnc(N)c1-c1ccc(O)cc1 [U52]	1 to 100 µM	> 100 µM	
CCc1c(-c2ccc(C(=O)NCCCNC(=O)CCNC(=O)OC(C)(C)C)nc2)cnc(N)c1-c1ccc(O)cc1 [U53]	1 to 100 µM	1 to 100 µM	
CCc1c(-c2ccc(C(=O)NCCCNC(=O)CCCCCCCCNC(=O)OC(C)(C)C)nc2)cnc(N)c1-c1ccc(O)cc1 [U54]	1 to 100 µM	> 100 µM	
CCc1c(-c2ccc(C(=O)NCCCNC(=O)CCOCCNC(=O)OC(C)(C)C)nc2)cnc(N)c1-c1ccc(O)cc1 [U55]	1 to 100 µM	1 to 100 µM	
CCc1c(-c2ccc(C(=O)NCCCNC(=O)CCOCCOCCNC(=O)OC(C)(C)C)nc2)cnc(N)c1-c1ccc(O)cc1 [U56]	1 to 100 µM	1 to 100 µM	
CCc1c(-c2ccc(C(=O)NCCCNC(=O)CCOCCOCCOCCNC(=O)OC(C)(C)C)nc2)cnc(N)c1-c1ccc(O)cc1 [U57]	1 to 100 µM	1 to 100 µM	
CCc1c(-c2ccc(C(=O)NCCCNC(=O)CCOCCOCCOCCOCCNC(=O)OC(C)(C)C)nc2)cnc(N)c1-c1ccc(O)cc1 [U58]	1 to 100 µM	1 to 100 µM	
C[C@H](CC(=O)N1CCC(O)(Cn2cnc(N3CCN(CCN)CC3)cc2=O)CC1)c1ccccc1 [U59]	< 1 µM	1 to 100 µM	
CCc1c(-c2ccc3[nH]ncc3c2)cnc(CNC(=O)OC(C)(C)C)c1-c1ccc(O)cc1 [U60]	1 to 100 µM	1 to 100 µM	
CCc1c(-c2ccc(C(=O)NCCN)nc2)cnc(N)c1-c1ccc(O)cc1 [U61]	< 1 µM	< 1 µM	
CCc1c(-c2ccc(C(=O)NC)nc2)cnc(NCCN)c1-c1ccc(O)cc1 [U62]	< 1 µM	1 to 100 µM	
CCc1c(-c2ccc3[nH]ncc3c2)cnc(CN)c1-c1ccc(O)cc1 [U63]	1 to 100 µM	1 to 100 µM	
CCc1c(-c2ccc(O)cc2)cnc(C=O)c1-c1ccc(O)cc1 [U64]	1 to 100 µM	1 to 100 µM	
CCc1c(-c2ccc3[nH]ncc3c2)cnc(C=O)c1-c1ccc(O)cc1 [U65]	1 to 100 µM	1 to 100 µM	
CC(C)(C)OC(=O)N1CCC(C(=O)Nc2nc3ccc(N(S(=O)(=O)c4cccs4)S(=O)(=O)c4cccs4)cc3s2)CC1 [U66]	1 to 100 µM	> 100 µM	
O=C(Nc1nc2ccc(NS(=O)(=O)c3cccs3)cc2s1)C1CCNCC1 [U67]	1 to 100 µM	> 100 µM	
O=C(Nc1nc2ccc(NS(=O)(=O)c3cccs3)cc2s1)c1ccco1 [U68]	1 to 100 µM	> 100 µM	
C[C@H](CC(=O)N1CCC(O)(Cn2cnc(NCCN3CCN(CCN=[N+]=[N-])CC3)cc2=O)CC1)c1ccccc1 [U69]	< 1 µM	< 1 µM	
CCc1c(-c2ccc(C(=O)NC)nc2)ccc(NCCN=[N+]=[N-])c1-c1ccc(O)cc1 [U70]	1 to 100 µM	1 to 100 µM	
CCc1c(-c2ccc(O)cc2)cnc(NCCN=[N+]=[N-])c1-c1ccc(C(=O)NC)nc1 [U71]	< 1 µM	1 to 100 µM	
CN1CCC(C(=O)Nc2nc3ccc(NS(=O)(=O)c4ccc5c(c4)CC(=O)N5C)cc3s2)CC1 [U72]	> 100 µM	> 100 µM	
CCn1cc(S(=O)(=O)Nc2ccc3nc(NC(=O)C4CCN(C)CC4)sc3c2)cn1 [U73]	> 100 µM	1 to 100 µM	
CN1CCC(C(=O)Nc2nc3ccc(NS(=O)(=O)CC4CC4)cc3s2)CC1 [U74]	1 to 100 µM	> 100 µM	

SMILES	Kd (USP7 CD + UBL 1-5; [1])	IC50 (USP7)	Kd (USP7 CD + UBL 1-5; kinetic KD, read-out: SPR USP7 CD + UBL 1-5 (KD_kinetic))
CN1CCC(C(=O)Nc2nc3ccc(N(C)S(=O)(=O)c4cccs4)cc3s2)CC1 [U75]	> 100 µM	> 100 µM	
CCc1c(-c2ccc3n[nH]cc3c2)cnc(CNC(=O)OC(C)C)c1-c1ccc(O)cc1 [U76]	1 to 100 µM	1 to 100 µM	
CN1CCCn2nc(C(=O)Nc3nc4ccc(NS(=O)(=O)c5cccs5)cc4s3)cc2C1 [U77]	1 to 100 µM	> 100 µM	1 to 100 µM
CCOC(=O)NCc1ccc(-c2ccc3n[nH]cc3c2)c(CC)c1-c1ccc(O)cc1 [U78]	1 to 100 µM	1 to 100 µM	
CN1CCC(C(=O)Nc2nc3ncc(NS(=O)(=O)c4cccs4)cc3s2)CC1 [U79]	> 100 µM	> 100 µM	
CS(=O)(=O)c1nccc(Nc2nc3ccc(NS(=O)(=O)c4cccs4)cc3s2)n1 [U80]	1 to 100 µM	> 100 µM	
Cc1ccsc1S(=O)(=O)Nc1ccc2nc(NC(=O)C3CCN(C)CC3)sc2c1 [U81]	1 to 100 µM	> 100 µM	
CCc1c(-c2ccc3c(cnn3CCN)c2)cnc(CNC(=O)OC(C)(C)C)c1-c1ccc(O)cc1 [U82]	1 to 100 µM	1 to 100 µM	
NCc1cc(Nc2nc3ccc(NS(=O)(=O)c4cccs4)cc3s2)ncn1 [U83]	1 to 100 µM	> 100 µM	
O=C(O)c1ccc(Nc2nc3ccc(NS(=O)(=O)c4cccs4)cc3s2)nn1 [U84]	1 to 100 µM	> 100 µM	
O=C(O)c1ccnc(Nc2nc3ccc(NS(=O)(=O)c4cccs4)cc3s2)n1 [U85]	> 100 µM	> 100 µM	
CCc1c(-c2ccc3[nH]ncc3c2)c(C#N)nc(CNC(=O)OC(C)(C)C)c1-c1ccc(O)cc1 [U86]	1 to 100 µM	1 to 100 µM	
NCc1ccc(Nc2nc3ccc(NS(=O)(=O)c4cccs4)cc3s2)nc1 [U87]	1 to 100 µM	> 100 µM	
CN1CCC(C(=O)Nc2nc3cc(NS(=O)(=O)c4cccs4)ccc3s2)CC1 [U88]	> 100 µM	> 100 µM	
CN1CCC(C(=O)Nc2nc3ccc(NS(=O)(=O)N4CC(F)C4)cc3s2)CC1 [U89]	> 100 µM	> 100 µM	
Cc1nocc1S(=O)(=O)Nc1ccc2nc(NC(=O)C3CCN(C)CC3)sc2c1 [U90]	1 to 100 µM	> 100 µM	
CN1CCC(C(=O)Nc2nc3ccc(NS(=O)(=O)c4cn5c(n4)CCC5)cc3s2)CC1 [U91]	1 to 100 µM	> 100 µM	
CN1CCC(NC(=O)c2nc3ccc(NS(=O)(=O)c4cccs4)cc3s2)CC1 [U92]	> 100 µM	> 100 µM	
CN1CCC(C(=O)Nc2nc3ccc(NS(=O)(=O)c4cnccn4)cc3s2)CC1 [U93]	1 to 100 µM	> 100 µM	
NCCN(c1ccc2nc(NC(=O)c3ccco3)sc2c1)S(=O)(=O)c1cccs1 [U94]	1 to 100 µM	> 100 µM	
CN1CCC(C(=O)Nc2nc3ccc(NS(=O)(=O)c4cnc(Cl)s4)cc3s2)CC1 [U95]	> 100 µM	> 100 µM	
CC(=O)N1CCCn2nc(C(=O)Nc3nc4ccc(NS(=O)(=O)c5cccs5)cc4s3)cc2C1 [U96]	1 to 100 µM	> 100 µM	
CN1CCn2cnc(C(=O)Nc3nc4ccc(NS(=O)(=O)c5cccs5)cc4s3)c2C1 [U97]	1 to 100 µM	> 100 µM	
O=C(Nc1nc2ccc(NS(=O)(=O)c3cccs3)cc2s1)c1cc2n(n1)CCCN(C1CC1)C2 [U98]	1 to 100 µM	1 to 100 µM	
CN1CCn2cc(C(=O)Nc3nc4ccc(NS(=O)(=O)c5cccs5)cc4s3)nc2C1 [U99]	1 to 100 µM	> 100 µM	
